# Measurements taken from publication PMC11345841, “Exploring 2-Sulfonylpyrimidine Warheads as Acrylamide Surrogates for Targeted Covalent Inhibition: A BTK Story” (Journal of Medicinal Chemistry, 2024).
# Where two headings read alike, the source gives them in different places.
# Legend:
# TMD8 cells = assay: Annexin V/propidium iodide staining (apoptosis, viability); format: cell-based, human; conditions: 72 h
# Experimental: We tested the effects of compounds in TMD8 cells, derived from an activated B-cell DLBCL. These cells have constitutive signaling via the BCR and additionally carry MYD88^L265P and CD79B mutations which give rise to My-T-BCR complex. […] Apoptosis was quantified after exposure of cells to compounds for 72 h using annexin V/PI staining and flow cytometry (Figure 3E, Figure S4).
# Cells were washed in phosphate-buffered saline and resuspended in 300 μL of annexin V staining buffer (10 mM HEPES HCl (pH 7.4), 140 mM NaCl, 2.5 mM CaCl2) supplemented with 2.5 μg/mL fluorescein isothiocyanate-labeled annexin V (kind gift from Dr Patrick Duriez, Protein Core Facility, University of Southampton) and 12.5 μM propidium iodide (Invitrogen). Cells were analyzed by flow cytometry (Canto II system, BD Biosciences) and the percentage of viable cells was determined by calculating the proportion of Annexin V-/PI-cells as a percentage of all cells (results for untreated cells at 72 h set to 100%).
# ABL2 = target: T1, ABL2 (Homo sapiens, UniProt P42684); assay: KINOMEscan ScanTK; format: binding
# T1 construct: purchased Eurofins DiscoverX KINOMEscan (scanTK)
# T1 sequence (P42684 whole entry): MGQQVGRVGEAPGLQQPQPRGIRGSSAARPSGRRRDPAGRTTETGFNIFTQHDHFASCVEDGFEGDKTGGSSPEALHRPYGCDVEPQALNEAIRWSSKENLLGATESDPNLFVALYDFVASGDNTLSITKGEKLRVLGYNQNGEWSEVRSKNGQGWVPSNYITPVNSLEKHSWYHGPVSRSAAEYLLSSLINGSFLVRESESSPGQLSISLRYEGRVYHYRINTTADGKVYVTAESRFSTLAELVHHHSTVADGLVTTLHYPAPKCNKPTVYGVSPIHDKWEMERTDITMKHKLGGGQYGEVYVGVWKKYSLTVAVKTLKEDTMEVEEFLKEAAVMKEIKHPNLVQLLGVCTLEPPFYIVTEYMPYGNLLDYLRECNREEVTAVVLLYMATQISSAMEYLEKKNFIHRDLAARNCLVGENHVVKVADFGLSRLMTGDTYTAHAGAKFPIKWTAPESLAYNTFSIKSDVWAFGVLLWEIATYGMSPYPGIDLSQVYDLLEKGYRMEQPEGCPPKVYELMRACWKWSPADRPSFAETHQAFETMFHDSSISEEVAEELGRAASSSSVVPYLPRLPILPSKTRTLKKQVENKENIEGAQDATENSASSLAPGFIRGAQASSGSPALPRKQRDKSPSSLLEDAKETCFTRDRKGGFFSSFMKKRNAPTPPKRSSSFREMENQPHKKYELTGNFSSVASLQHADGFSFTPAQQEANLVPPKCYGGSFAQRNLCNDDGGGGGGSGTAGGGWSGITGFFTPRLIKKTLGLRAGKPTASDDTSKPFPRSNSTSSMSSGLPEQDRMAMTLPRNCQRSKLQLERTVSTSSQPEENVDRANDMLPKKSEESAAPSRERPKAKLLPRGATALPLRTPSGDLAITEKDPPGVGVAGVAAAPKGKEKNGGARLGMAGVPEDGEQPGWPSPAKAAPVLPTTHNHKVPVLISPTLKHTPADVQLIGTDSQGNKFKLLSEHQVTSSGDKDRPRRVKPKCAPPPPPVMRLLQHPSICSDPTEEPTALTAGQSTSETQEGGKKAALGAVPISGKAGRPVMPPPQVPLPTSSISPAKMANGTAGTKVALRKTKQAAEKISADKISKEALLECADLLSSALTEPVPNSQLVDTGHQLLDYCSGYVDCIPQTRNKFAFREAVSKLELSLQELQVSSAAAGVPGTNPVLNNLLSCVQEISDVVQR
# FLT3(D835V) = target: T2, FLT3(D835V) (Homo sapiens, UniProt P36888, D835V); assay: KINOMEscan ScanTK; format: binding
# T2 construct: purchased Eurofins DiscoverX KINOMEscan (scanTK)
# T2 sequence (P36888 27-993 D835V): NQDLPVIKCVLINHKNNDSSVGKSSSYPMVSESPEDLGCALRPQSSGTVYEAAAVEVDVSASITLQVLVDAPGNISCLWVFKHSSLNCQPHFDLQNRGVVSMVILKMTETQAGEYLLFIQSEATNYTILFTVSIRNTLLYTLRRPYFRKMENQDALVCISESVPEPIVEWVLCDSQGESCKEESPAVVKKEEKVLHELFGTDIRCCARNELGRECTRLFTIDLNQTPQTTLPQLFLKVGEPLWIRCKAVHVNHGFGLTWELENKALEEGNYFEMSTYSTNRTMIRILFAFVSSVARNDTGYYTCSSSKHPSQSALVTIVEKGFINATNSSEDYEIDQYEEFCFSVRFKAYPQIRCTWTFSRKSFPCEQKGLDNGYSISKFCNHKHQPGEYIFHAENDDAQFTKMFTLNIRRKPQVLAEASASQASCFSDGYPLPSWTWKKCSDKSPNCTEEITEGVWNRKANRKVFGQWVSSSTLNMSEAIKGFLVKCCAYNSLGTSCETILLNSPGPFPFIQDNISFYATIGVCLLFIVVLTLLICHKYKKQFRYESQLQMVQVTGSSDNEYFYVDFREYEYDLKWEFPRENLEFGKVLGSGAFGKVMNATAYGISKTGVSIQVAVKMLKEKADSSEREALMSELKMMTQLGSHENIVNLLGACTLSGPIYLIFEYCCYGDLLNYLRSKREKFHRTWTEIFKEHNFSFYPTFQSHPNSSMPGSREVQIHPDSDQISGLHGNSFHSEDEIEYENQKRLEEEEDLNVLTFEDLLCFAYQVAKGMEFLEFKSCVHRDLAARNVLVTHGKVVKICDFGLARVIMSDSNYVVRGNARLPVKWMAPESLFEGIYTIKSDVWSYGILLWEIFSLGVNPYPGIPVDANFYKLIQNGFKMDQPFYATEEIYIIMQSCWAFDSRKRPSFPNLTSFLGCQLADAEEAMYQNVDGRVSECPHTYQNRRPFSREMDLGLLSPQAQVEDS
# FLT3(ITD,D835V) = assay: KINOMEscan ScanTK; format: binding; conditions: for % difference (compound - Ib %Control) / %Control: @1000nM
# RET(V804M) = target: T3, RET(V804M) (Homo sapiens, UniProt P07949, V804M); assay: KINOMEscan ScanTK; format: binding
# T3 construct: purchased Eurofins DiscoverX KINOMEscan (scanTK)
# T3 sequence (P07949 29-1114 V804M): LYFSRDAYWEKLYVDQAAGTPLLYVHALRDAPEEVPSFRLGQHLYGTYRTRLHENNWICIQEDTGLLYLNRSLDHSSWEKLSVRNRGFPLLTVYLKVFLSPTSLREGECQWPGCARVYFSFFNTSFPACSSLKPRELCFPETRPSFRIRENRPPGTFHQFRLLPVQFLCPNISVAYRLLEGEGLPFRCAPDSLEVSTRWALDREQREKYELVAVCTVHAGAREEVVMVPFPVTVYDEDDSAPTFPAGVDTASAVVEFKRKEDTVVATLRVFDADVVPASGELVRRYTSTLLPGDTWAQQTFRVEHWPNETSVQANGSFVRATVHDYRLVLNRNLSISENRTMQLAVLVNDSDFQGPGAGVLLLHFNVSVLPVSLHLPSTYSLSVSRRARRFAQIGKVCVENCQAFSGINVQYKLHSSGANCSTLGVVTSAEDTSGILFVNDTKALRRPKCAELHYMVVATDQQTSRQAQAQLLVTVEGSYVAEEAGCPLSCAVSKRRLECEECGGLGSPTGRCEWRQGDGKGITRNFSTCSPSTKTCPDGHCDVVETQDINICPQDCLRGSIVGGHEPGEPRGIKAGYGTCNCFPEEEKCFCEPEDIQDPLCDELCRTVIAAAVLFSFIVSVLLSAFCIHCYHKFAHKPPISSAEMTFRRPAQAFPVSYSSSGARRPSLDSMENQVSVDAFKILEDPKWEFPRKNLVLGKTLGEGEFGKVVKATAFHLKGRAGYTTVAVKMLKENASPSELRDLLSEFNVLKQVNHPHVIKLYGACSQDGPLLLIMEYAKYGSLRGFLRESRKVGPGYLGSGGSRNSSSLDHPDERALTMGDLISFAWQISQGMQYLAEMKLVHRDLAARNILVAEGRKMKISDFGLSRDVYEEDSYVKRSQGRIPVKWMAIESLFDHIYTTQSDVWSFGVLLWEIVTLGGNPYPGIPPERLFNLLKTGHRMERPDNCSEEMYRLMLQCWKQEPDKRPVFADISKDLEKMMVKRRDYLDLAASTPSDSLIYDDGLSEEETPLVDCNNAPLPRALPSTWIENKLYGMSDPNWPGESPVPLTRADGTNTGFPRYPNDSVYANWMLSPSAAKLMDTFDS
# ZAP70 = target: T4, ZAP70 (Homo sapiens, UniProt P43403); assay: KINOMEscan ScanTK; format: binding
# T4 construct: purchased Eurofins DiscoverX KINOMEscan (scanTK)
# T4 sequence (P43403 1-619): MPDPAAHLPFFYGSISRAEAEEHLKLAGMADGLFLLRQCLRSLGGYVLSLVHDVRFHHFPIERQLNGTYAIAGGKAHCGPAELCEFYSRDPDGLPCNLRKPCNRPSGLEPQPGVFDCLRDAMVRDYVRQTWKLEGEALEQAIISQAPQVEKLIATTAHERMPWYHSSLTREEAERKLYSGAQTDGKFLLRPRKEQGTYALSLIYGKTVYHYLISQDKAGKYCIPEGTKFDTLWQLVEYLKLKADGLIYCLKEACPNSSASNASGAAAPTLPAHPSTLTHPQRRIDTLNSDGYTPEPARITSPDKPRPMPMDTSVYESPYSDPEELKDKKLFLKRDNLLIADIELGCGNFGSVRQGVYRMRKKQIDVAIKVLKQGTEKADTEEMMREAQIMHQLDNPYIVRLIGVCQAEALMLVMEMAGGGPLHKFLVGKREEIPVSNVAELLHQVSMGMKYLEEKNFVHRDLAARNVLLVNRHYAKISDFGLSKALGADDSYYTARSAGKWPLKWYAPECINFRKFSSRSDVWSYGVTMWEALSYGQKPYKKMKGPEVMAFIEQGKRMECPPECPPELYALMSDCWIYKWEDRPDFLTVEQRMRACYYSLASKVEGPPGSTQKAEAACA
difference in %Control from reference compound Ib at 1 µM (ABL2; @1000nM) [%],"remaining binding at 1 µM (ABL2; @1000nM, read-out: %Control) [%]",remaining binding at 1 µM (ABL2; read-out: %Control @1000nM) [%],difference in %Control versus compound Ib at 1 µM (FLT3(D835V); @1000nM) [%],"remaining binding at 1 µM (FLT3(D835V); @1000nM, read-out: %Control) [%]",remaining binding at 1 µM (FLT3(D835V); read-out: %Control @1000nM) [%],"remaining binding at 1 µM (RET(V804M); @1000nM, read-out: %Control) [%]",remaining binding at 1 µM (RET(V804M); read-out: %Control @1000nM) [%],"remaining binding at 1 µM (ZAP70; @1000nM, read-out: %Control) [%]",remaining binding at 1 µM (ZAP70; read-out: %Control @1000nM) [%],Compound,fold lower apoptotic potency than Ibrutinib (TMD8 cells) [fold],induction of apoptosis (TMD8 cells),"%Control @1000nM (FLT3(ITD,D835V)) [%]","% difference (compound - Ib %Control) (FLT3(ITD,D835V)) [%]","%Control (FLT3(ITD,D835V)) [%]"
57,98,98,46.1,56,56,100,100,100,100,"CCOC(=O)c1cnc(S(C)(=O)=O)nc1N1CCC[C@@H](n2nc(-c3ccc(Oc4ccccc4)cc3)c3c(N)ncnc32)C1 [Compound 8c, Ethyl (R)-4-(3-(4-Amino-3-(4-phenoxyphenyl)-1H-pyrazolo[3,4-d]pyrimidin-1-yl)piperidin-1-yl)-2-(methylsulfonyl)pyrimidine-5-carboxylate]",,essentially inactive,69,-8,69
29,70,70,20.1,30,30,93,93,92,92,"Cc1cnc(S(C)(=O)=O)nc1N1CCCC(n2nc(-c3ccc(Oc4ccccc4)cc3)c3c(N)ncnc32)C1 (stereo not shown) [Compound 8a, 1-(1-(5-Methyl-2-(methylsulfonyl)pyrimidin-4-yl)piperidin-3-yl)-3-(4-phenoxyphenyl)-1H-pyrazolo[3,4-d]pyrimidin-4-amine]",~10,induced apoptosis,78,1,78
38,79,79,38.1,48,48,90,90,94,94,"COC(=O)c1cnc(S(C)(=O)=O)nc1N1CCCC(n2nc(-c3ccc(Oc4ccccc4)cc3)c3c(N)ncnc32)C1 (stereo not shown) [Compound 8b, Methyl 4-(3-(4-Amino-3-(4-phenoxyphenyl)-1H-pyrazolo[3,4-d]pyrimidin-1-yl)piperidin-1-yl)-2-(methylsulfonyl)pyrimidine-5-carboxylate]",,induced apoptosis,93,16,93

Compound,difference in %Control from reference compound Ib at 1 µM (ABL2; @1000nM) [%],"remaining binding at 1 µM (ABL2; @1000nM, read-out: %Control) [%]",remaining binding at 1 µM (ABL2; read-out: %Control @1000nM) [%],difference in %Control versus compound Ib at 1 µM (FLT3(D835V); @1000nM) [%],"remaining binding at 1 µM (FLT3(D835V); @1000nM, read-out: %Control) [%]",remaining binding at 1 µM (FLT3(D835V); read-out: %Control @1000nM) [%],"remaining binding at 1 µM (RET(V804M); @1000nM, read-out: %Control) [%]",remaining binding at 1 µM (RET(V804M); read-out: %Control @1000nM) [%],"remaining binding at 1 µM (ZAP70; @1000nM, read-out: %Control) [%]",remaining binding at 1 µM (ZAP70; read-out: %Control @1000nM) [%],fold lower apoptotic potency than Ibrutinib (TMD8 cells) [fold],induction of apoptosis (TMD8 cells),"%Control @1000nM (FLT3(ITD,D835V)) [%]","% difference (compound - Ib %Control) (FLT3(ITD,D835V)) [%]","%Control (FLT3(ITD,D835V)) [%]"
"CNC(=O)c1cnc(S(C)(=O)=O)nc1N1CCCC(n2nc(-c3ccc(Oc4ccccc4)cc3)c3c(N)ncnc32)C1 (stereo not shown) [Compound 8d, 4-(3-(4-Amino-3-(4-phenoxyphenyl)-1H-pyrazolo[3,4-d]pyrimidin-1-yl)piperidin-1-yl)-N-methyl-2-(methylsulfonyl)pyrimidine-5-carboxamide]",48,89,89,13.1,23,23,100,100,100,100,~10,induced apoptosis,70,-7,70
"C=CC(=O)N1CCC[C@@H](n2nc(-c3ccc(Oc4ccccc4)cc3)c3c(N)ncnc32)C1 [Compound 1g, Ibrutinib, reference compound]",,41,41,,,,100,100,,,,,77,,77
